Each block holds one molecule with its values, some of them ahead of it.
Legend:
[1] = test system: diet-induced obese (DIO) mice; experiment: intraperitoneal glucose tolerance test (ipGTT), acute oral treatment (Experiments 1-5); assay type: in vivo, C57BL/6 mice; settings: HFD 4 weeks
Procedure: (§1) For all experiments, 12-14 weeks old male C57BL/6 mice were obtained from the University of Otago animal facility. All procedures were approved by the University of Otago Animal Ethics Committee. Mice were housed individually under a 12:12 h light/dark cycle and ambient temperature was 23° C. Animals had either access to low-fat diet (LFD, containing 10% fat; cat. no. D12450B; Research Diets) or high-fat diet (HFD, containing 60% fat; cat. No. D12492; Research Diets) for a duration of 4 weeks, and water ad libitum. For each experiment a new cohort of animals was employed.
For all experiments, the formulations were prepared by forming an ethanol solution of the selected active ingredient(s), i.e. B, I or S individually, the mix or the extract, and then diluting to the desired concentration with 0.9 wt % NaCl aqueous solution.
To investigate whether the compounds either individually, a mixture of all three compounds (B, S and I; hereinafter referred to as “mix”) or the total extract of yellow Dahlia ‘Ruskin Diane’ petals acutely affect glucose homeostasis, intraperitoneal glucose tolerance tests (ipGTTs) were performed in diet-induced obese (DIO) mice as a model to mimic human prediabetes and impairments in glucose metabolism. Individual compounds, the mix or the total extract were dissolved in 0.9% NaCl containing 5% ethanol and administered orally. Mice (n=7-8/group) were fed either a high fat diet (HFD) or respective low fat diet (LFD) for 4 weeks, fasted for 16 h and received the different compounds/combinations or vehicle (0.9% NaCl containing 5% ethanol) by oral gavage. For example, for administration to a 50 g mouse, an oral gavage having a volume of 500 μl was prepared, the oral gavage contained 500 μg of extract or 50 μg of compound(s). The volume of the gavage administered was adjusted based on the weight of the mouse subject. Glucose (1.5 g/kg body weight; dissolved in 0.9% NaCl) was injected intraperitoneally (i.p.) 60 minutes after oral gavage treatment, and an ipGTT was performed. Blood glucose levels were measured using a commercially available glucometer (Accu-Check Performa; Roche) whilst truncating the tip of the tail with a fresh scalpel blade. For statistical validation, the area under the curve (AUC) was calculated.
These experiments establish dose responses of the individual compounds using different concentrations (20, 10, 3.3, 1, 0.33 mg/kg body weight), the mix (20, 10, 3.3, 1, 0.33 mg/kg body weight) or the extract (50, 20, 10, 3.3, 1 mg/kg) to determine the highest non-effective dose to allow for testing of synergism in combination with commercially available diabetes drugs in subsequent experiments. Mice were fed either LFD or HFD 4 weeks (Experiments 4 and 5). After mice were food deprived for 16 hours, an pGTT was carried out as previously described.
(§2) Data were analysed by one-way ANOVA or repeated measures ANOVA followed by multiple comparison test, as appropriate, using GraphPad Prism 5 software (Graphpad Software, Inc.). The results are presented as means ±SEM, and differences were considered significant if p≤0.05.

[2] = stability of extract and butein in vitro (RPLC); assay type: physicochemical
Procedure: Experiments were carried out on dissolving/dispersing Dahlia ‘Ruskin Diane’ extract into aqueous buffer. […] To confirm the cause of instability of the buffered extract, the stability of butein was assessed in aqueous buffer at pH7 (butein was stable at pH4). […] By contrast, butein was stable when diluted into EtOH and stored under ambient conditions (FIG. 16). […] The conversion of butein to sulfuretin is an oxidative cyclisation.

solubility = assay type: physicochemical; settings: pH7 buffer solution
[3] = test system: phosphorylation of AKT (pAKT); experiment: central insulin signalling: pAKT immunoreactive cells in the arcuate nucleus (Experiment 10); assay type: in vivo, C57BL/6 mice; settings: insulin 1 mg/kg 15 min before perfusion; LFD and HFD fed mice vs vehicle-injected
Procedure: To identify a mode of action of how the compounds, formulations and the extract affect glucose homeostasis, effects on central insulin signalling by measuring phosphorylation of AKT (pAKT) were investigated. AKT is the main target of insulin in the arcuate nucleus of the hypothalamus. To assess the degree of insulin action in the hypothalamus, phosphorylated AKT positive cells were counted. Mice were fed LFD or HFD for 4 weeks, fasted for 16 h and bodyweight matched. Sixty minutes before transcardial perfusion they received B (10 mg/kg), I (10 mg/kg), S (10 mg/kg), the mix (3.3 mg/kg of each compound), the extract (10 mg/kg) or vehicle (0.9% NaCl containing 5% ethanol) by oral gavage. Additionally, mice received an insulin (1 mg/kg) or vehicle injection 15 minutes before transcardial perfusion. Immunohistochemistry was carried out on mouse brain coronal cryosections as described previously in Benzler J, et al. Diabetes. […]
To investigate the molecular mechanisms and to identify the molecular targets of the mix and the extract, mice were fed either a HFD or LFD for 4 weeks followed by treatment with the mix (3.3 mg/kg body weight each) or the extract (10 mg/kg) acutely by oral gavage. […] The target protein of the insulin signalling pathway, pAKT, was visualized by immunohistochemistry and quantified by counting pAKT immunoreactive cells.

[4] = test system: diet-induced obese (DIO) mice; experiment: ipGTT after chronic metformin or pramlintide, alone or combined with the mix (Experiments 6-9); assay type: in vivo, C57BL/6 mice
Procedure: as §1
Separate cohorts of mice were treated with the respective control injections. Mice were fasted for 16 h and an ipGTT was performed as described.
After chronic treatment with the well described antidiabetic drugs mice were fasted for 16 h and received the mix acutely (0.33 mg/kg; containing 5% ethanol). 60 minutes later we carried out an ipGTT as described previously.
as §2

[5] = Experiment 1: 10 mg/kg (mix: 3.3 mg/kg of each compound) oral gavage 1 h before ipGTT, vs HFD control
[6] = Experiment 3: 3.3 mg/kg (each) orally 1 h before ipGTT

- stability ([2]; aqueous buffer pH4): stable
- rate of conversion to sulfuretin ([2]; attempts to exclude oxygen): slowed the reaction
- stability ([2]; diluted into EtOH and stored under ambient conditions): stable
- rate of conversion to sulfuretin ([2]; excluding light and adding a radical inhibitor): no effects on reaction rate
- solubility (solubility): limited solubility
Molecule: O=C(/C=C/c1ccc(O)c(O)c1)c1ccc(O)cc1O [B, Butein]
- glucose tolerance in ipGTT [1, 5]: did not improve glucose tolerance
- glucose tolerance in ipGTT ([1]; Experiment 2: 3.3 mg/kg of each compound orally 1 h before ipGTT, vs vehicle treated HFD mice): no effect on glucose tolerance
- stability ([2]; EtOH or DMSO solutions diluted into aqueous buffer at pH7, room temperature): linear (zero order kinetics) conversion of butein to sulfuretin over time

Molecule: O=C(/C=C/c1ccc(O)cc1)c1ccc(O)cc1O [I, Isoliquiritigenin]
- glucose tolerance in ipGTT [1, 5]: trend towards an improved glucose homeostasis
- glucose tolerance in ipGTT [1, 6]: improved glucose tolerance
- stability (concentration over time) [2]: decreased in concentration much more slowly

Molecule: Insulin: insulin (1 mg/kg) injected to activate the insulin signalling pathway
- pAKT positive cells in the arcuate nucleus [3]: markedly increased pAKT positive cells

Molecule: O=C1/C(=C/c2ccc(O)c(O)c2)Oc2cc(O)ccc21 [S, Sulfuretin]
- glucose tolerance in ipGTT [1, 5]: significantly improve glucose tolerance
- glucose tolerance in ipGTT [1, 6]: improved glucose tolerance

Molecule: CN(C)C(=N)N=C(N)N [metformin]
- glucose tolerance in ipGTT ([4]; Experiment 6: 300 mg/kg/d oral, twice daily, last 7 days, p=0.004 vs HFD control): improved glucose tolerance
- highest dose that did not improve glucose tolerance ([4]; Experiment 6: oral gavage twice daily for last 7 days, HFD 4 weeks): 100 mg/kg body weight

Molecule: CC[C@H](C)[C@H](NC(=O)[C@@H]1CCCN1C(=O)CNC(=O)[C@H](Cc1ccccc1)NC(=O)[C@H](CC(N)=O)NC(=O)[C@H](CC(N)=O)NC(=O)[C@H](CO)NC(=O)[C@H](CO)NC(=O)[C@H](Cc1c[nH]cn1)NC(=O)[C@@H](NC(=O)[C@H](CC(C)C)NC(=O)[C@H](Cc1ccccc1)NC(=O)[C@H](CC(N)=O)NC(=O)[C@H](C)NC(=O)[C@H](CC(C)C)NC(=O)[C@H](CCCNC(=N)N)NC(=O)[C@H](CCC(N)=O)NC(=O)[C@@H](NC(=O)[C@H](C)NC(=O)[C@@H]1CSSC[C@H](NC(=O)[C@@H](N)CCCCN)C(=O)N[C@@H](CC(N)=O)C(=O)N[C@@H]([C@@H](C)O)C(=O)N[C@@H](C)C(=O)N[C@@H]([C@@H](C)O)C(=O)N1)[C@@H](C)O)C(C)C)C(=O)N[C@@H](CC(C)C)C(=O)N1CCC[C@H]1C(=O)N1CCC[C@H]1C(=O)N[C@H](C(=O)N[C@@H](CC(N)=O)C(=O)N[C@H](C(=O)NCC(=O)N[C@@H](CO)C(=O)N[C@@H](CC(N)=O)C(=O)N[C@H](C(=O)N[C@@H](Cc1ccc(O)cc1)C(N)=O)[C@@H](C)O)C(C)C)[C@@H](C)O [pramlintide]
- glucose tolerance in ipGTT ([4]; Experiment 8: 1000 μg/kg/d s.c. twice daily for 5 days, p=0.0497 vs vehicle HFD): improved glucose tolerance
- highest non-effective dose ([4]; Experiment 8: s.c. twice daily for last 5 days, HFD 4 weeks): 200 μg/kg/d body weight
- glucose tolerance in ipGTT ([4]; Experiment 8: the other concentrations (200, 40, 8, 1.6 μg/kg/d s.c.)): no significant effect on glucose homeostasis
- glucose tolerance in ipGTT ([4]; Experiment 9: pramlintide 200 μg/kg/d s.c. last 5 days and/or mix 0.33 mg/kg oral 1 h before ipGTT, vs HFD vehicle): neither pramlintide alone at 200 μg/kg/d body weight (FIG. 9A) nor the mix at 0.33 mg/kg body weight (FIG. 9B) was able to improve glucose tolerance
